Tests used:
[1] = system: PBX1 transcript; experiment: BG4 RNA immunoprecipitation (RIP) followed by qRT-PCR in A375 cells; assay type: cell-based, human
Procedure: FIGS. 2A-2G are features formed by dG1 and rG1 in vitro and in cells. In (FIG. 2A), Left: CD spectra of WT and Mut dG1, and Right: CD spectra of WT and Mut rG1. CD is circular dichroism. In (FIG. 2B), Left: gel mobility assay of WT and Mut dG1, and Right: gel mobility assay of WT and Mut rG1. In (FIG. 2C), under specified conditions, fluorescence-on assay of NMM in absence of presence of dG1 or rG1, and their G/A mutant. In (FIG. 2D), the occupancy of BG4 in the PBX1 promoter region is measured in A375 cells by BG4 chromatin immunoprecipitation (ChIP), followed by qRT-PCR. In (FIG. 2E), RNA immunoprecipitation (RIP) detection is performed to show the association between BG4 and the PBX1 transcript in A375 cells, followed by qRT-PCR. In (FIG. 2F), the occupancy of BG4 in the PBX1 promoter region is measured, by the BG4 chip, in A375 cells treated with or without PDS and TMPyP4, followed by qRT-PCR. […] SEM represents the standard error of mean. *P< 0.05, **P< 0.01***P< 0.001.
In this embodiment, several methods are further employed to verify the formation of dG1 and rG1. First, circular dichroism (CD) is used to examine the molar ellipticity of dG1 and rG1 sequences (33 nt) and mutants thereof, and the mutants are designed to eliminate G4 formation. […] N-methyl mesoporphyrin IX (NMN) is the well-known fluorescent G4-specific ligand that can be used for studies of G4 formation in vitro. Both dG1 and rG1 are found to enhance the fluorescence of N N (FIG. 2C). In addition, in this embodiment, chromatin immunoprecipitation (ChIP) and RNA immunoprecipitation (RIP) detection are performed in A375 cells using the well-known G4-specific antibody BG4. […] In summary, dG1 and rG1 can fold stable G4 structures in vitro and in cells. […] Therefore, the ability of these G4-specific ligands to interact with PBX1 G4s is investigated next.
Control:mG*mT*mC*mC*mA*mC*mA*mA*mA*mC*mA*mC*mA*mA*mC*mT*mC* mC*mT*mG*). […] This example also establishes short-term cultures of patient-derived melanoma xenograft (PDX)-derived tumor cells (PDCs) (FIG. 5D). […]

[2] = system: PBX1; experiment: PBX1 mRNA and protein levels by qRT-PCR and western blot in A375 cells; assay type: cell-based, human
Procedure: (§1) RNA extraction and quantitative RT-PCR detection: total RNA is extracted from cultured cells by using TRIzol (Invitrogen, USA), then is converted into cDNA by SuperScript III First-Strand Synthesis SuperMix (Invitrogen, USA). qRT-PCR detection is performed by using SYBR Green®Mix (Invitrogen, USA) in ABI 7500 (Invitrogen, USA). A relative expression quantity of RNA is calculated by using a comparative CT method.
(§2) Immunoblotting: for protein analysis of a whole-cell lysate, cells are lysed with RIPA (CWBIO, Beijing, China) buffer solution. For tumors, liquid nitrogen is first used to pulverize tissues. Then, the lysate is generated on ice with the RIPA (CWBIO, Beijing, China) buffer solution for 20 minutes, and then centrifuged at 4° C., 13000 rpm for 15 minutes. Protein-containing supernatant is transferred to the fresh microcentrifuge tube, and stored at −20° C. (short-term storage) for subsequent use. The protein is quantified by using the BIO-RAD DC protein assay. The total proteins are electrophoresed on SDS-polyacrylamide gels. Then, the proteins are transferred to polyvinylidene difluoride (PVDF) membrane. After incubation with the primary antibody overnight on the shaker at 4° C., the membrane is washed 6 times (5 minutes each time) with TBS-T (Invitrogen, USA). Then, blots are incubated with horseradish peroxidase (IRP)-conjugated secondary antibodies for 60 minutes at RT on the plate shaker. The membrane is cleaned by TBS-T (6×5 minutes). Detection on immunoreactive bands is performed by using SuperSignalmWest Pico chemiluminescence substrate kit (Thermo Fisher Scientific, USA) and Western blotting detection system (BioRad, USA). GAPDH is used as the loading control for western blotting. The intensity levels of the bands are normalized to GAPDH.

[3] = system: PBX1; experiment: PBX1 mRNA and protein levels by qRT-PCR and western blot in B16-F10 cells; assay type: cell-based, mouse
Procedure: as §1, §2

[4] = system: A375 cells; experiment: Colony forming assay, A375; assay type: cell-based, human
Procedure: (§3) Colony forming assay: for the colony forming assay, A375 and B16-F10 cells are seeded on 6-well plates with the density of 500-1000 cells. After two weeks, staining is performed by using 1% crystal violet at room temperature, rinsing is performed with PBS and tap water, and the number of colonies is counted.

[5] = system: PDCs; experiment: Colony forming assay, patient-derived tumor cells; assay type: cell-based, human
Procedure: as §3
Preparation of patient-derived tumor cells: tumor tissues of PDXs are used in basic RPMI1640 medium (Gibco, USA. Free-FBS medium). Patient-derived tumor cells (PDC) are prepared from cryopreserved xenograft fragments using the tumor isolation kit (Miltenyi Biotec, Germany), following the tumor treatment solution. PDCs are cultured as described by Bruna and Shanker et al. (6,7). PDCs are used for colony forming assays.

[6] = system: B16-F10 cells; experiment: In vivo tumor metastasis assay, B16-F10 tail vein injection; parameters: species or system mice; conditions: in vivo studies, summary statement
Procedure: In vivo tumor metastasis assay: 2×10^5 B16-F10 cells are injected into the tail vein of tail vein tumor. According to solutions formulated by the NCI Animal Care and Use Committee, metastatic endpoints are determined for each experiment by maximal primary tumor burden and/or appearance of moribund mice in all treatment groups. PDS (5 mg/kg) is administered twice a day, for 16 consecutive days.
Bioluminescent tumor cell tracking: in vivo whole-animal imaging, anesthetized mice are injected intraperitoneally with 3 mg of d-luciferin (MCE, USA). Luminescence data is collected on an IVIS system (Perkin Elmer, USA). For live tissue imaging, tissues are perfused with PBS, harvested, and incubated in PBS with 1 μg/ml-1d-luciferin. Data analysis is performed using an IVIS Image software package.

[7] = system: patient-derived melanoma xenograft (PDX); experiment: PDX model of melanoma in NCG mice; assay type: in vivo
Procedure: PDX model of melanoma: fresh tumor tissues are collected immediately after surgery, placed in RPMI 1640 medium containing penicillin/streptomycin (100 U/ml; 100 μg/ml), fungal zone (1 μg/ml) and Genta Mycin (50 μg/ml) (all from Gibco, USA) (4,5). According to the institutional review and the ethical guidelines for this study approved by the Ethics Committee of the Second Hospital of Jilin University, fresh tumor samples from patients suffering from melanoma are collected for transplantation with informed consent. The mice were kept and all procedures are performed under the approval and supervision of the Institutional Animal Care and Use Committee (IACUC) of the School of Public Health of Jilin University (Changchun, China). Necrotic tissues are excised before transplantation, and tumor tissues are minced to a size of 2×2×2 mm^3, and implanted subcutaneously in the flank of 6-week-old NCG male mice to generate first-generation (F1) PDX mice. Successfully transplanted tumor models are passaged and stored using standard methods. H&E staining is used to evaluate the morphology of patient tumor specimens and xenografts of established PDX models. Treatment with ASO Scr or ASO (intravenous injection, 20 mg/kg) is initiated when the tumor volume of the mice reached 220-280 mm^3. Tumor growth and body weight measurements are performed. Tumors are dissected at the end of treatment for further processing for RNA, protein and histological analysis.
Control:mG*mT*mC*mC*mA*mC*mA*mA*mA*mC*mA*mC*mA*mA*mC*mT*mC* mC*mT*mG*). […] This example also establishes short-term cultures of patient-derived melanoma xenograft (PDX)-derived tumor cells (PDCs) (FIG. 5D). […] To further expand the analysis, this embodiment establishes the PDX model of melanoma, and […] is administered intravenously (intravenous injection) every two days for 21 days.

[8] = system: melanoma cell line; experiment: Proliferation, migration and invasion of the melanoma cell line (summary statement); assay type: cell-based
Source text: The present invention detects the effect of PBX1-G4 on growth and lung metastasis of melanoma and discovers that the expression of PBX1 is positively correlated with the development of melanoma. The sequence of PBX1 is conserved in evolution and is same in mice and human beings. […] The identification of the present invention on the antisense oligonucleotide targeting the PBX1 promoter region G-quadruplex provides the new drug target and new treatment methods and ideas for development of the new generation of medicine for treating melanoma.

[9] = western blot, normalized to GAPDH
[10] = PDX, intravenous injection 20 mg/kg every two days for 21 days, vs PBX1 ASO scramble

## ASO: ASO specific for the complementary sequence of rG1 in the 5′ UTR of PBX1: mG*mG*mG*G*T*mT*mG*mC*mG*mG*mG*mG*mT*mG*mA*G*G*G*T*mG* (antisense GGGGTTGCGGGGTGAGGGTG; chemistry not given here)
[1]
  PBX1 transcript pulled down by BG4: increases
[2]; qRT-PCR
  mRNA level of PBX1: effectively reduce
[2]; [9]
  protein level of PBX1: effectively reduce
[3]; qRT-PCR
  mRNA level of PBX1: effectively reduce
[3]; [9]
  protein level of PBX1: effectively reduce
[4]
  colony formation: decreases
[5]
  colony formation ability: decreases
[6]
  lung metastasis of melanoma: almost completely inhibits
[7]; PDX
  expression of proliferation marker Ki67 in tumors: significant downregulation
[7]; [10]
  tumor growth: significant reduction
  tumor weight: significant reduction
[7]; PDX, qRT-PCR and IHC staining
  expression of PBX1 in tumors: significant downregulation
[7]; in vivo studies, summary statement
  growth of melanoma: almost completely inhibits
[8]
  invasion capability of the melanoma cell line: obviously inhibits
  migration capability of the melanoma cell line: obviously inhibits
  proliferation capability of the melanoma cell line: obviously inhibits
